Source: ChEMBL document CHEMBL3632554, “Ligand binding studies, preliminary structure-activity relationship and detailed mechanistic characterization of 1-phenyl-6,6-dimethyl-1,3,5-triazine-2,4-diamine derivatives as inhibitors of Escherichia coli dihydrofolate reductase” (Eur J Med Chem, 2015)
Calls of active or inactive are those of the source. The rule behind the calls is not given here.

Target: T1, Dihydrofolate reductase (Escherichia coli) (UniProt P0ABQ4)
T1 sequence (whole entry): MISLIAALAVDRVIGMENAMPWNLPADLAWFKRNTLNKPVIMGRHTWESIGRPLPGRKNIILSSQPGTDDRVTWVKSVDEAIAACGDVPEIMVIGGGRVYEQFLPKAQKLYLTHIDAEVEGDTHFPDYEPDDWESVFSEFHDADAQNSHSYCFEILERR

SMILES	Ki(app)
CC1(C)N=C(N)N=C(N)N1c1ccc(CCCCc2ccc(Cl)cc2Cl)cc1	inactive
CN(C)c1ccc(N2C(N)=NC(N)=NC2(C)C)cc1	inactive
